Results as given in patent US12338256B2, “Aza-tetracyclic oxazepine compounds and uses thereof” (Genentech, Inc., priority 2022, dated 2025).

Assays:
[1] = test system: HPAC (homozygous mutant KRAS G12D human pancreatic cell line); experiment: KRAS 3D-Cell Proliferation Assay, HPAC (Example 503); type: cell-based; conditions: Homo sapiens, HPAC, 168 h, HPAC 3D culture, 7 days, CellTiter-Glo 3D; read-out: Prolif HPAC 3D ATP IC50
Summary of the method: (§1)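 Luminescent ATP readout (CellTiter-Glo 3D, with mechanical mixing) measures growth of cells cultured in 3D after a 7-day compound exposure at 37° C. Percent inhibition is referenced to vehicle (DMSO) and 1 μM staurosporine controls, and IC50 comes from a four-parameter Hill fit.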

[2] = test system: H1975 (KRAS wild type human lung adenocarcinoma cell line); experiment: KRAS 3D-Cell Proliferation Assay, H1975 (Example 503); type: cell-based; conditions: Homo sapiens, NCI-H1975, 168 h, H1975 3D culture, 7 days, CellTiter-Glo 3D; read-out: Prolif H1975 3D ATP IC50
Summary of the method: as §1

Compound	IC50 [1]	IC50 [2]
Cc1c(F)c(N)cc(-c2nc3c4c(nc(OCC5CCC6CC(F)CN56)nc4c2F)N2CC4CCC(N4)C2C(C)O3)c1C(F)(F)F (single isomer, unassigned) [152 (isomer 2)]	299 nM	6330 nM
Cc1c(F)c(N)cc(-c2nc3c4c(nc(OCC5CC(F)C6CCCN56)nc4c2F)N2C[C@H]4CC[C@H](N4)[C@H]2[C@H](C)O3)c1C(F)(F)F (single isomer, unassigned) [160 (diast. 1)]	8.07 nM	1000 nM
C#Cc1c(F)ccc2cc(N)cc(-c3nc4c5c(nc(OC[C@]67CCN6CC(F)(F)C7)nc5c3F)N3C[C@H]5CC[C@H](N5)[C@H]3[C@H](C)O4)c12 [Compound 110, 4-((5S,5aS,6S,9R)-12-(((R)-3,3-Difluoro-1-azabicyclo[3.2.0]heptan-5-yl)methoxy)-1-fluoro-5-methyl-5a,6,7,8,9,10-hexahydro-5H-4-oxa-3,10a,11,13,14-pentaaza-6,9-methanonaphtho[1,8-ab]heptalen-2-yl)-5-ethynyl-6-fluoronaphthalen-2-amine]	2.58 nM	587 nM
Cc1c(F)c(N)c(F)c(-c2nc3c4c(nc(OC[C@@]56CCCN5C[C@H](F)C6)nc4c2F)N2C[C@H]4CC[C@H](N4)[C@H]2[C@H](C)O3)c1Cl [Compound 195, 4-Chloro-2,6-difluoro-3-((5S,5aS,6S,9R)-1-fluoro-12-(((2R,7aS)-2-fluorotetrahydro-1H-pyrrolizin-7a(5H)-yl)methoxy)-5-methyl-5a,6,7,8,9,10-hexahydro-5H-4-oxa-3,10a,11,13,14-pentaaza-6,9-methanonaphtho[1,8-ab]heptalen-2-yl)-5-methylaniline]	22.1 nM	1340 nM
Cc1cc(N)cc(-c2nc3c4c(nc(OC[C@@]56CCCN5C[C@H](F)C6)nc4c2F)N2C[C@H]4CC[C@H](N4)[C@H]2[C@H](C)O3)c1Cl [Compound 74, 4-Chloro-3-((5S,5aS,6S,9R)-1-fluoro-12-(((2R,7aS)-2-fluorotetrahydro-1H-pyrrolizin-7a(5H)-yl)methoxy)-5-methyl-5a,6,7,8,9,10-hexahydro-5H-4-oxa-3,10a,11,13,14-pentaaza-6,9-methanonaphtho[1,8-ab]heptalen-2-yl)-5-methylaniline]	5.7 nM	2040 nM
Cc1c(F)c(N)cc(-c2nc3c4c(nc(OC[C@@]56C[C@H](F)CN5C[C@H](F)C6)nc4c2F)N2C[C@H]4CC[C@H](N4)[C@H]2[C@H](C)O3)c1C(F)(F)F [Compound 142, 5-((5S,5aS,6S,9R)-12-(((2R,6S,7as)-2,6-Difluorotetrahydro-1H-pyrrolizin-7a(5H)-yl)methoxy)-1-fluoro-5-methyl-5a,6,7,8,9,10-hexahydro-5H-4-oxa-3,10a,11,13,14-pentaaza-6,9-methanonaphtho[1,8-ab]heptalen-2-yl)-2-fluoro-3-methyl-4-(trifluoromethyl)aniline]	5.45 nM	3560 nM
Cc1c(F)c(N)nc(-c2nc3c4c(nc(OC[C@@]56CCCN5C[C@H](F)C6)nc4c2F)N2C[C@H]4CC[C@H](N4)[C@H]2[C@H](C)O3)c1C(F)(F)F [Compound 191, 3-Fluoro-6-((5S,5aS,6S,9R)-1-fluoro-12-(((2R,7aS)-2-fluorotetrahydro-1H-pyrrolizin-7a(5H)-yl)methoxy)-5-methyl-5a,6,7,8,9,10-hexahydro-5H-4-oxa-3,10a,11,13,14-pentaaza-6,9-methanonaphtho[1,8-ab]heptalen-2-yl)-4-methyl-5-(trifluoromethyl)pyridin-2-amine]	29.6 nM	1410 nM
Cc1nc(N)cc(-c2nc3c4c(nc(OCC5(CN6CC7CC(F)(F)C7C6)CC5)nc4c2F)N2C[C@H]4CC[C@H](N4)[C@H]2[C@H](C)O3)c1C(F)(F)F (mixture of isomers) [Compound 264, 4-((5S,5aS,6S,9R)-12-((1-((6,6-difluoro-3-azabicyclo[3.2.0]heptan-3-yl)methyl)cyclopropyl)methoxy)-1-fluoro-5-methyl-5a,6,7,8,9,10-hexahydro-5H-4-oxa-3,10a,11,13,14-pentaaza-6,9-methanonaphtho[1,8-ab]heptalene-2-yl)-6-methyl-5-(trifluoromethyl)pyridin-2-amine]	5.56 nM	11000 nM
COC1(C(F)F)CN(CC2(COc3nc4c5c(nc(-c6cc(N)nc(C)c6C(F)(F)F)c(F)c5n3)O[C@@H](C)[C@@H]3[C@@H]5CC[C@H](CN43)N5)CC2)C1 [Compound 271, 4-((5S,5aS,6S,9R)-12-((1-((3-(difluoromethyl)-3-methoxyazetidin-1-yl)methyl)cyclopropyl)methoxy)-1-fluoro-5-methyl-5a,6,7,8,9,10-hexahydro-5H-4-oxa-3,10a,11,13,14-pentaaza-6,9-methanonaphtho[1,8-ab]heptalene-2-yl)-6-methyl-5-(trifluoromethyl)pyridin-2-amine]	4.49 nM	10900 nM
Cc1nc(N)c(F)c(-c2nc3c4c(nc(OCC5(CN6C[C@H]7C[C@@H]6CO7)CC5)nc4c2F)N2C[C@H]4CC[C@H](N4)[C@H]2[C@H](C)O3)c1C(F)(F)F [Compound 223, 4-((5S,5aS,6S,9R)-12-((1-(((1R,4R)-2-Oxa-5-azabicyclo[2.2.1]heptan-5-yl)methyl)cyclopropyl)methoxy)-1-fluoro-5-methyl-5a,6,7,8,9,10-hexahydro-5H-4-oxa-3,10a,11,13,14-pentaaza-6,9-methanonaphtho[1,8-ab]heptalene-2-yl)-3-fluoro-6-methyl-5-(trifluoromethyl)pyridin-2-amine]	6.46 nM	1230 nM
Cc1c(F)c(N)cc(-c2nc3c4c(nc(OC[C@@]56CCCN5C[C@H](F)C6)nc4c2F)N2C[C@H]4CC[C@H](N4)[C@H]2[C@H](C(F)(F)F)O3)c1CC(F)F [Compound 250, 4-(2,2-Difluoroethyl)-2-fluoro-5-((5R,5aS,6S,9R)-1-fluoro-12-(((2R,7aS)-2-fluorotetrahydro-1H-pyrrolizin-7a(5H)-yl)methoxy)-5-(trifluoromethyl)-5a,6,7,8,9,10-hexahydro-5H-4-oxa-3,10a,11,13,14-pentaaza-6,9-methanonaphtho[1,8-ab]heptalene-2-yl)-3-methylaniline]	16.9 nM	994 nM
Cc1nc(N)cc(-c2nc3c4c(nc(OCC5(CN6CC7CCOC7C6)CC5)nc4c2F)N2C[C@H]4CC[C@H](N4)[C@H]2[C@H](C)O3)c1C(F)(F)F (stereo partly drawn) [Compound 280, 4-((5S,5aS,6S,9R)-1-fluoro-12-((1-((hexahydro-5H-furo[2,3-c]pyrrol-5-yl)methyl)cyclopropyl)methoxy)-5-methyl-5a,6,7,8,9,10-hexahydro-5H-4-oxa-3,10a,11,13,14-pentaaza-6,9-methanonaphtho[1,8-ab]heptalene-2-yl)-6-methyl-5-(trifluoromethyl)pyridin-2-amine]	1.77 nM	1340 nM
C[C@@H]1Oc2nc(-c3cc(N)cc(F)c3C(F)(F)F)c(F)c3nc(OCC4CCC5N4CCOC5(C)C)nc(c23)N2C[C@H]3CC[C@H](N3)[C@@H]12 (stereo partly drawn) [Compound 157, 3-((5S,5aS,6S,9R)-12-((1,1-Dimethylhexahydro-1H-pyrrolo[2,1-c][1,4]oxazin-6-yl)methoxy)-1-fluoro-5-methyl-5a,6,7,8,9,10-hexahydro-5H-4-oxa-3,10a,11,13,14-pentaaza-6,9-methanonaphtho[1,8-ab]heptalen-2-yl)-5-fluoro-4-(trifluoromethyl)aniline]	12.8 nM	2140 nM
Cc1c(F)c(N)cc(-c2nc3c4c(nc(OCC5CCC6CC(F)(F)CCN56)nc4c2F)N2CC4CCC(N4)C2C(C)O3)c1C(F)(F)F (single isomer, unassigned) [119 (isomer 1)]	76.7 nM	3150 nM
Cc1c(F)c(N)cc(-c2nc3c4c(nc(OCC5(CCF)CCCN5C)nc4c2F)N2CC4CCC(N4)C2C(C)O3)c1C(F)(F)F (single isomer, unassigned) [127 (isomer 2)]	57.5 nM	7970 nM
Cc1c(F)c(N)cc(-c2nc3c4c(nc(OC[C@@H](F)CN5CC6(COC6)C5)nc4c2F)N2C[C@H]4CC[C@H](N4)[C@H]2[C@H](C)O3)c1C(F)(F)F [Compound 145]	68.7 nM	5120 nM
C[C@@H]1Oc2nc(-c3cc(N)nc(C(F)F)c3C(F)(F)F)c(F)c3nc(OC[C@@]45CCCN4C[C@H](F)C5)nc(c23)N2C[C@H]3CC[C@H](N3)[C@@H]12 [Compound 260, 6-(Difluoromethyl)-4-((5S,5aS,6S,9R)-1-fluoro-12-(((2R,7aS)-2-fluorotetrahydro-1H-pyrrolizin-7a(5H)-yl)methoxy)-5-methyl-5a,6,7,8,9,10-hexahydro-5H-4-oxa-3,10a,11,13,14-pentaaza-6,9-methanonaphtho[1,8-ab]heptalen-2-yl)-5-(trifluoromethyl)pyridin-2-amine]	41.5 nM	3250 nM
Cc1cc(N)c(F)c(-c2nc3c4c(nc(OC[C@@H]5CC[C@H]6COCCN65)nc4c2F)N2C[C@H]4CC[C@H](N4)[C@H]2[C@H](C)O3)c1C(F)(F)C(F)(F)F [Compound 100, 2-Fluoro-3-((5S,5aS,6S,9R)-1-fluoro-12-(((6S,8aS)-hexahydro-1H-pyrrolo[2,1-c][1,4]oxazin-6-yl)methoxy)-5-methyl-5a,6,7,8,9,10-hexahydro-5H-4-oxa-3,10a,11,13,14-pentaaza-6,9-methanonaphtho[1,8-ab]heptalen-2-yl)-5-methyl-4-(perfluoroethyl)aniline]	21.8 nM	3970 nM
